Read-outs that look alike come from different tables or passages of the source.
Columns and labels:
PC-3 cells = assay: Inhibition of PC-3 cells (MTS cell proliferation); assay type: cell-based; details: for OD value 1 / OD value 2: 490 nm; for OD value 1 / OD value 2 / inhibition at 0.4 µM / inhibition at 0.8 µM / inhibition at 1.6 µM / inhibition at 3.2 µM / inhibition at 6.25 µM / inhibition at 12.5 µM / inhibition at 25 µM / inhibition at 50 µM / inhibition at 100 µM: 72 h; for inhibition at 0.4 µM / inhibition at 0.8 µM / inhibition at 1.6 µM / inhibition at 3.2 µM / inhibition at 6.25 µM / inhibition at 12.5 µM / inhibition at 25 µM / inhibition at 50 µM / inhibition at 100 µM / IC50: Homo sapiens, PC-3
Protocol: Inhibition of PC-3 Cells: Cells: PC-3 cells, ATCC Passage unknown, Mycoplasma free. Medium: DMEM Medium (GIBCO Cat #11995073) supplemented with 10% fetal bovine serum (Hyclone Cat #SH30396.03). Seeding: 3,000 cells/well (100 ul) into 96-wells plate, incubated overnight at 37° C. in a humidified, 5% CO2 atmosphere. Treatment: Test compounds and Gemcitabine were prepared in a serial dilution (1:2) by culture medium. Fifty microliters (50 uL) of serially diluted solutions were added into each well. The final concentrations of the positive control and test compounds were shown in the graphs. The cells were incubated for 72 hours after addition of the test compounds. MTS: 15 uL of MTS solution (Promega Cat #G5430) was added into each well and incubated with cells for 4 hours at 37° C. in a humidified, 5% CO2 atmosphere. Measurement: Absorbance at 490 nm was measured using MD Spectramax Plus384 spectrophotometer. The regression curves were calculated by the GraphPad Prism 5 using “log(inhibitor) vs response—variable slope”. Calculation: % of inhibition=(ODzero ctrl−OD compound)/ODzero ctrl*100.

LNCaP = assay: Inhibition of LNCaP cells (MTS cell proliferation); assay type: cell-based; details: for OD value 1 / OD value 2: 490 nm; for OD value 1 / OD value 2 / inhibition at 0.4 µM / inhibition at 0.8 µM / inhibition at 1.6 µM / inhibition at 3.2 µM / inhibition at 6.25 µM / inhibition at 12.5 µM / inhibition at 25 µM / inhibition at 50 µM / inhibition at 100 µM: 72 h; for inhibition at 0.4 µM / inhibition at 0.8 µM / inhibition at 1.6 µM / inhibition at 3.2 µM / inhibition at 6.25 µM / inhibition at 12.5 µM / inhibition at 25 µM / inhibition at 50 µM / inhibition at 100 µM / IC50: Homo sapiens
Protocol: Inhibition of LNCaP Cells Cells: LNCaP, ATCC Passage unknown, Mycoplasma free. Medium: RPMI-1640 Medium (GIBCO Cat #22400121) supplemented with 10% fetal bovine serum (Hyclone Cat #SH30396.03). Seeding: 3,000 cells/well (100 uL) into 96-wells plate, incubated overnight at 37° C. in a humidified, 5% CO2 atmosphere. Treatment: Test compounds and Gemcitabine were prepared in a serial dilution (1:2) by culture medium. Fifty microliters (50 uL) of serially diluted solutions were added into each well. The final concentrations of the positive control and test compounds were shown in the graphs. The cells were incubated for 72 hours after addition of the test compounds. MTS: 15 uL of MTS solution (Promega Cat #G5430) was added into each well and incubated with cells for 4 hours at 37° C. in a humidified, 5% CO2 atmosphere. Measurement: Absorbance at 490 nm was measured using MD Spectramax Plus384 spectrophotometer. The regression curves were calculated by the GraphPad Prism 5 using “log(inhibitor) vs response—variable slope”. Calculation: % of inhibition+(AVE zero ctrl−AVE compound)/AVE zero ctrl*100.

Question: Which results are given for Nc1ccn([C@@H]2O[C@H](CO)[C@@H](O)C2(F)F)c(=O)n1 [Gemcitabine]?
Answer: OD value 1 (PC-3 cells; 0.400 uM, replicate 1): 0.884; OD value 2 (PC-3 cells; 0.400 uM, replicate 2): 0.866; OD value 1 (PC-3 cells; 0.800 uM, replicate 1): 0.860; OD value 2 (PC-3 cells; 0.800 uM, replicate 2): 0.803; OD value 1 (PC-3 cells; 1.600 uM, replicate 1): 0.794; OD value 2 (PC-3 cells; 1.600 uM, replicate 2): 0.778; OD value 1 (PC-3 cells; 3.200 uM, replicate 1): 0.726; OD value 2 (PC-3 cells; 3.200 uM, replicate 2): 0.756; OD value 1 (PC-3 cells; 6.250 uM, replicate 1): 0.686; OD value 2 (PC-3 cells; 6.250 uM, replicate 2): 0.692; OD value 1 (PC-3 cells; 12.500 uM, replicate 1): 0.617; OD value 2 (PC-3 cells; 12.500 uM, replicate 2): 0.628; OD value 1 (PC-3 cells; 25.000 uM, replicate 1): 0.572; OD value 2 (PC-3 cells; 25.000 uM, replicate 2): 0.583; OD value 1 (PC-3 cells; 50.000 uM, replicate 1): 0.458; OD value 2 (PC-3 cells; 50.000 uM, replicate 2): 0.488; OD value 1 (PC-3 cells; 100.000 uM, replicate 1): 0.246; OD value 2 (PC-3 cells; 100.000 uM, replicate 2): 0.214; inhibition at 0.4 µM (PC-3 cells; 0.400 uM, replicate 1, read-out: % of inhibition 1): 2.1%; inhibition at 0.4 µM (PC-3 cells; 0.400 uM, replicate 2, read-out: % of inhibition 2): 1.92%; inhibition at 0.8 µM (PC-3 cells; 0.800 uM, replicate 1, read-out: % of inhibition 1): 4.8%; inhibition at 0.8 µM (PC-3 cells; 0.800 uM, replicate 2, read-out: % of inhibition 2): 9.05%; inhibition at 1.6 µM (PC-3 cells; 1.600 uM, replicate 1, read-out: % of inhibition 1): 12%; inhibition at 1.6 µM (PC-3 cells; 1.600 uM, replicate 2, read-out: % of inhibition 2): 11.9%; inhibition at 3.2 µM (PC-3 cells; 3.200 uM, replicate 1, read-out: % of inhibition 1): 19.7%; inhibition at 3.2 µM (PC-3 cells; 3.200 uM, replicate 2, read-out: % of inhibition 2): 14.3%; inhibition at 6.25 µM (PC-3 cells; 6.250 uM, replicate 1, read-out: % of inhibition 1): 24.1%; inhibition at 6.25 µM (PC-3 cells; 6.250 uM, replicate 2, read-out: % of inhibition 2): 21.7%; inhibition at 12.5 µM (PC-3 cells; 12.500 uM, replicate 1, read-out: % of inhibition 1): 31.7%; inhibition at 12.5 µM (PC-3 cells; 12.500 uM, replicate 2, read-out: % of inhibition 2): 28.9%; inhibition at 25 µM (PC-3 cells; 25.000 uM, replicate 1, read-out: % of inhibition 1): 36.7%; inhibition at 25 µM (PC-3 cells; 25.000 uM, replicate 2, read-out: % of inhibition 2): 34%; inhibition at 50 µM (PC-3 cells; 50.000 uM, replicate 1, read-out: % of inhibition 1): 49.3%; inhibition at 50 µM (PC-3 cells; 50.000 uM, replicate 2, read-out: % of inhibition 2): 44.5%; inhibition at 100 µM (PC-3 cells; 100.000 uM, replicate 1, read-out: % of inhibition 1): 72.8%; inhibition at 100 µM (PC-3 cells; 100.000 uM, replicate 2, read-out: % of inhibition 2): 75.8%; IC50 (PC-3 cells; Table 18, read-out: PC-3* 50% inhibition concentration): 41.3 µM; IC50 (PC-3 cells; Table 26, 72 hours, read-out: 50% viability conc.): 41.3 µM; OD value 1 (LNCaP; 0.400 uM, replicate 1): 0.578; OD value 2 (LNCaP; 0.400 uM, replicate 2): 0.662; OD value 1 (LNCaP; 0.800 uM, replicate 1): 0.459; OD value 2 (LNCaP; 0.800 uM, replicate 2): 0.434; OD value 1 (LNCaP; 1.600 uM, replicate 1): 0.448; OD value 2 (LNCaP; 1.600 uM, replicate 2): 0.472; OD value 1 (LNCaP; 3.200 uM, replicate 1): 0.322; OD value 2 (LNCaP; 3.200 uM, replicate 2): 0.337; OD value 1 (LNCaP; 6.250 uM, replicate 1): 0.182; OD value 2 (LNCaP; 6.250 uM, replicate 2): 0.190; OD value 1 (LNCaP; 12.500 uM, replicate 1): 0.166; OD value 2 (LNCaP; 12.500 uM, replicate 2): 0.173; OD value 1 (LNCaP; 25.000 uM, replicate 1): 0.101; OD value 2 (LNCaP; 25.000 uM, replicate 2): 0.177; OD value 1 (LNCaP; 50.000 uM, replicate 1): 0.124; OD value 2 (LNCaP; 50.000 uM, replicate 2): 0.202; OD value 1 (LNCaP; 100.000 uM, replicate 1): 0.112; OD value 2 (LNCaP; 100.000 uM, replicate 2): 0.197; inhibition at 0.4 µM (LNCaP; LNCaP, 0.400 uM, replicate 1, read-out: % of inhibition 1): 12.8%; inhibition at 0.4 µM (LNCaP; LNCaP, 0.400 uM, replicate 2, read-out: % of inhibition 2): 13.6%; inhibition at 0.8 µM (LNCaP; LNCaP, 0.800 uM, replicate 1, read-out: % of inhibition 1): 30.8%; inhibition at 0.8 µM (LNCaP; LNCaP, 0.800 uM, replicate 2, read-out: % of inhibition 2): 43.4%; inhibition at 1.6 µM (LNCaP; LNCaP, 1.600 uM, replicate 1, read-out: % of inhibition 1): 32.4%; inhibition at 1.6 µM (LNCaP; LNCaP, 1.600 uM, replicate 2, read-out: % of inhibition 2): 38.4%; inhibition at 3.2 µM (LNCaP; LNCaP, 3.200 uM, replicate 1, read-out: % of inhibition 1): 51.4%; inhibition at 3.2 µM (LNCaP; LNCaP, 3.200 uM, replicate 2, read-out: % of inhibition 2): 56%; inhibition at 6.25 µM (LNCaP; LNCaP, 6.250 uM, replicate 1, read-out: % of inhibition 1): 72.5%; inhibition at 6.25 µM (LNCaP; LNCaP, 6.250 uM, replicate 2, read-out: % of inhibition 2): 75.2%; inhibition at 12.5 µM (LNCaP; LNCaP, 12.500 uM, replicate 1, read-out: % of inhibition 1): 75%; inhibition at 12.5 µM (LNCaP; LNCaP, 12.500 uM, replicate 2, read-out: % of inhibition 2): 77.4%; inhibition at 25 µM (LNCaP; LNCaP, 25.000 uM, replicate 1, read-out: % of inhibition 1): 84.8%; inhibition at 25 µM (LNCaP; LNCaP, 25.000 uM, replicate 2, read-out: % of inhibition 2): 76.9%; inhibition at 50 µM (LNCaP; LNCaP, 50.000 uM, replicate 1, read-out: % of inhibition 1): 81.3%; inhibition at 50 µM (LNCaP; LNCaP, 50.000 uM, replicate 2, read-out: % of inhibition 2): 73.6%; inhibition at 100 µM (LNCaP; LNCaP, 100.000 uM, replicate 1, read-out: % of inhibition 1): 83.1%; inhibition at 100 µM (LNCaP; LNCaP, 100.000 uM, replicate 2, read-out: % of inhibition 2): 74.3%; IC50 (LNCaP; LNCaP, Table 18, read-out: LNCaP* 50% inhibition concentration): 1.97 µM; IC50 (LNCaP; Table 26, LNCaP, 72 hours, read-out: 50% viability conc.): 1.97 µM; IC50 (LNCaP; Table 26, LNCaP, 72 hours, read-out: IC50): 2.38 µM; Maximal inhibition % (LNCaP; Table 26, LNCaP, 72 hours): 78.69%

From patent publication US9073903B2, “Imidazole-2,4-dione inhibitors of casein kinase 1” (Jasco Pharmaceuticals, LLC, priority 2010, dated 2015)
